Activity calls are given as the source filed them. The calls are words filed in the database; no cut-off is given here.
How the values were obtained:
HCT-116 [1] = experiment: Induction of RBM39 degradation in human HCT-116 cells at 3 to 300 nM incubated for 24 hrs in presence of MLN4924 by Western blot analysis; format: cell-based; details: dose 3-300 nM
HCT-116 [2] = experiment: Downregulation of KNL1 expression in human HCT-116 cells incubated for 24 hrs by Western blot analysis; format: functional, cell-based
HCT-116 [3] = experiment: Downregulation of RTTN expression in human HCT-116 cells incubated for 24 hrs by Western blot analysis; format: functional, cell-based
MV4-11 [4] = experiment: Induction of spliceosome function impairment in human MV4-11 cells assessed as decrease in CUL4A transcript at 1 to 10 uM incubated for 12 hrs by qRT-PCR analysis; format: functional, cell-based; details: dose 1-10 µM
HCT-116 [5] = experiment: Induction of apoptosis in human HCT-116 cells assessed as change in caspase-3 level at 0.1 to 5 uM incubated for 48 hrs by Western blot analysis; format: functional, cell-based; details: dose 0.1-5 µM
[6] = Effect on RNA splicing in human HCT-116 cells assessed as number of alternative 5' splice sites at 2 uM incubated for 12 hrs by RNA-seq analysis; format: functional
K562 [7] = experiment: Induction of spliceosome function impairment in human K562 cells assessed as decrease in ZNF207 transcript at 1 to 10 uM incubated for 12 hrs by qRT-PCR analysis; format: functional, cell-based; details: dose 1-10 µM
HCT-116 [8] = experiment: Induction of spliceosome function impairment in human HCT-116 cells assessed as decrease in ZNF207 exon8-exon10 RNA level at 1 to 10 uM incubated for 12 hrs by qRT-PCR analysis; format: functional, cell-based; details: dose 1-10 µM
HCT-116 [9] = experiment: Effect on RNA splicing in human HCT-116 cells assessed as RTTN gene retention of intron at 2 uM incubated for 12 hrs by RNA-seq analysis; format: functional, cell-based
MV4-11 [10] = experiment: Induction of spliceosome function impairment in human MV4-11 cells assessed as decrease in NCKAP1L transcript at 1 to 10 uM incubated for 12 hrs by qRT-PCR analysis; format: functional, cell-based; details: dose 1-10 µM
HCT-116 [11] = experiment: Induction of RBM39 degradation in human HCT-116 cells assessed as fold change at 1 uM incubated for 24 hrs by Western blot analysis relative to control; format: cell-based
HCT-116 [12] = experiment: Effect on RNA splicing in human HCT-116 cells assessed as CEP192 gene exon splicing at 2 uM incubated for 12 hrs by RNA-seq analysis; format: functional, cell-based
HCT-116 [13] = experiment: Effect on RNA splicing in human HCT-116 cells assessed as number of alternative 3' splice sites at 2 uM incubated for 12 hrs by RNA-seq analysis; format: functional
[14] = Effect on mitosis in human HCT-116 cells assessed as normal mitotic cells at 1 uM incubated for 48 hrs by immunofluorescence based analysis relative to control; format: functional
K562 [15] = experiment: Effect on RNA splicing in human K562 cells assessed as RTTN gene skipping exon at 2 uM incubated for 12 hrs by RNA-seq analysis; format: functional, cell-based
MV4-11 [16] = experiment: Induction of spliceosome function impairment in human MV4-11 cells assessed as increase in NCKAP1L RI transcript incubated for 12 hrs by qRT-PCR analysis; format: functional, cell-based; details: dose 1-10 µM
HCT-116 [17] = experiment: Downregulation of CENPI expression in human HCT-116 cells incubated for 24 hrs by Western blot analysis; format: functional, cell-based
HCT-116 [18] = experiment: Induction of spliceosome function impairment in human HCT-116 cells assessed as increase in CUL4A RI transcript at 1 to 10 uM incubated for 12 hrs by qRT-PCR analysis; format: functional, cell-based; details: dose 1-10 µM
[19] = Effect on RNA splicing in human HCT-116 cells assessed as number of mutually exclusive exons at 2 uM incubated for 12 hrs by RNA-seq analysis; format: functional
HCT-116 [20] = experiment: Effect on mitosis in human HCT-116 cells assessed as disorganized spindle phenotype at 1 uM incubated for 48 hrs by immunofluorescence based analysis; format: functional, cell-based
HCT-116 [21] = experiment: Induction of spliceosome function impairment in human HCT-116 cells assessed as increase in PRPF38A RI transcript at 1 to 10 uM incubated for 12 hrs by qRT-PCR analysis; format: functional, cell-based; details: dose 1-10 µM
HCT-116 [22] = experiment: Effect on RNA splicing in human HCT-116 cells assessed as CEP192 gene skipping exons incubated for 12 hrs by PCR analysis; format: functional, cell-based; details: dose <= 10.0 µM
[23] = Effect on RNA splicing in human K562 cells assessed as mutually exclusive exons at 2 uM incubated for 12 hrs by RNA-seq analysis relative to control; format: functional
[24] = Effect on RNA splicing in human K562 cells assessed as number of alternative 5' splice sites at 2 uM incubated for 12 hrs by RNA-seq analysis; format: functional
MOLM-13 = experiment: Effect on RNA splicing in human MOLM-13 cells assessed as CEP192 gene skipping exons incubated for 12 hrs by PCR analysis; format: functional, cell-based; details: dose 0.1-10 µM
HCT-116 [25] = experiment: Antitumor activity against human HCT-116 cells xenografted in BALB/c nude mouse at 150 mg/kg, po qd treated for 17 days relative to control; format: functional; details: HCT-116, 408 h, time 17 day, read-out: TGI
HL-60 [26] = experiment: Effect on RNA splicing in human HL-60 cells assessed as CEP192 gene skipping exons incubated for 12 hrs by PCR analysis; format: functional, cell-based; details: dose 0.1-10 µM
Kasumi 1 [27] = experiment: Induction of RBM39 degradation in human Kasumi 1 cells incubated for 24 hrs by Western blot analysis; format: cell-based
RS4-11 [28] = experiment: Antiproliferative activity against human RS4;11 cells assessed as inhibition of cell growth incubated for 4 days by CCK8 assay; format: functional, cell-based; details: time 4.0 day
RS4-11 [29] = experiment: Effect on RNA splicing in human RS4;11 cells assessed as CEP192 gene skipping exons incubated for 12 hrs by PCR analysis; format: functional, cell-based; details: dose 0.1-10 µM
CEM/C1 [30] = experiment: Effect on RNA splicing in human CEM/C1 cells assessed as CEP192 gene skipping exons incubated for 12 hrs by PCR analysis; format: functional, cell-based; details: dose 0.1-10 µM
Kasumi 1 [31] = experiment: Effect on RNA splicing in human Kasumi 1 cells assessed as CEP192 gene retention of introns incubated for 12 hrs by PCR analysis; format: functional, cell-based; details: dose 0.1-10 µM
HCT-116 [32] = experiment: Induction of spliceosome function impairment in human HCT-116 cells assessed as fold increase in CUL4A RI transcript at 1 to 10 uM incubated for 12 hrs by qRT-PCR analysis relative to control; format: functional; details: dose 1-10 µM
MV4-11 [33] = experiment: Effect on RNA splicing in human MV4-11 cells assessed as CEP192 gene skipping exons incubated for 12 hrs by PCR analysis; format: functional, cell-based; details: dose 0.1-10 µM
CEM/C1 [34] = experiment: Effect on RNA splicing in human CEM/C1 cells assessed as CEP192 gene retention of introns incubated for 12 hrs by PCR analysis; format: functional, cell-based; details: dose 0.1-10 µM
[35] = Cmax in ICR mouse at 15 mg/kg, po; format: ADME, organism-based; details: in vivo
HCT-116 [36] = experiment: Effect on DCAF15 expression in human HCT-116 cells at 0.1 to 5 uM incubated for 24 hrs by Western blot analysis; format: functional, cell-based; details: dose 0.1-5 µM
HL-60 [37] = experiment: Induction of RBM39 degradation in human HL-60 cells incubated for 24 hrs by Western blot analysis; format: cell-based
HCT-116 [38] = experiment: Antitumor activity against human HCT-116 cells xenografted in BALB/c nude mouse at 50 mg/kg, po bid treated for 17 days relative to control; format: functional; details: HCT-116, 408 h, time 17 day, read-out: TGI

NS(=O)(=O)c1ccc(S(=O)(=O)Nc2cccc3c(Cl)c[nH]c23)cc1 [INDISULAM]
Activity (HCT-116 [1]): inactive | Activity (HCT-116 [2]): Dose-dependent-effect | Activity (HCT-116 [3]): Dose-dependent-effect | Activity (MV4-11 [4]): Active | Activity (HCT-116 [5]): inactive | Activity [6]: 389 | Activity (K562 [7]): Active | Activity (HCT-116 [8]): Active | Activity (HCT-116 [9]): Active | Activity (MV4-11 [10]): Active | fold change (FC) (HCT-116 [11]): 0.16 | Activity (HCT-116 [12]): Active | Activity (HCT-116 [13]): 836 | Activity [14]: 1.4% | Activity (K562 [15]): Active | Activity (MV4-11 [16]): Active | Activity (HCT-116 [17]): Dose-dependent-effect | Activity (HCT-116 [18]): Active | Activity [19]: 667 | Activity (HCT-116 [20]): Active; Disorganized Spindle Phenotype Was Characterized By Random Microtubule Distribution Surrounding Condensed And Undivided Chromosomes | Activity (HCT-116 [21]): Active

Cc1ccc(NS(=O)(=O)c2cccc(NC(=O)C(=O)N3CCC[C@@H]3CO)c2)c2[nH]cc(C#N)c12
Activity (HCT-116 [22]): Dose-dependent-effect; Observed Skipping Of Exons 42, 28 And 13 | Activity (HCT-116 [1]): inactive | Activity (HCT-116 [2]): Dose-dependent-effect | Activity [23]: 10.3% | Activity [24]: 633 | Activity (HCT-116 [3]): Dose-dependent-effect | Activity (MV4-11 [4]): Active | Activity (HCT-116 [5]): inactive | Activity [6]: 329 | Activity (MOLM-13): Dose-dependent-effect; Observed Skipping Of Exons 42, 28 And 13 | inhibition in vivo at 150 mg/kg (HCT-116 [25]): 72% | Activity (K562 [7]): Active | Activity (HCT-116 [8]): Active | Activity (HCT-116 [9]): Active | Activity (HL-60 [26]): Dose-dependent-effect; Observed Skipping Of Exons 42, 28 And 13 | Activity (MV4-11 [10]): Active | Activity (Kasumi 1 [27]): Dose-dependent-effect | fold change (FC) (HCT-116 [11]): 0.21 | Activity (HCT-116 [12]): Active | Activity (HCT-116 [13]): 745 | Activity [14]: 0.8% | inhibition (RS4-11 [28]): Active | Activity (RS4-11 [29]): Dose-dependent-effect; Observed Skipping Of Exons 42, 28 And 13 | Activity (K562 [15]): Active | Activity (MV4-11 [16]): Active | Activity (CEM/C1 [30]): Dose-dependent-effect; Observed Skipping Of Exons 42, 28 And 13 | Activity (Kasumi 1 [31]): Dose-dependent-effect; Observed Retention Of Introns Between Exons 27 And 28 | Activity (HCT-116 [17]): Dose-dependent-effect | fold change (FC) (HCT-116 [32]): 3 | Activity (MV4-11 [33]): Dose-dependent-effect; Observed Skipping Of Exons 42, 28 And 13 | Activity (CEM/C1 [34]): Dose-dependent-effect; Observed Retention Of Introns Between Exons 27 And 28 | Cmax [35]: 2120 ng/mL | Activity (HCT-116 [36]): inactive | Activity (HL-60 [37]): Dose-dependent-effect | Activity [19]: 515 | Activity (HCT-116 [20]): Active; Disorganized Spindle Phenotype Was Characterized By Random Microtubule Distribution Surrounding Condensed And Undivided Chromosomes | inhibition in vivo at 50 mg/kg (HCT-116 [38]): 35%
